Test results published in patent US20090047408A1, “Method for Improving Absorbability of Epigallocatechin Gallate, Foods, Drinks and Food/Drink Materials Using the Same and Method for Producing the Same” (ITO EN, LTD, priority 2005, published 2009).

What was measured:
Type in all cases: in vivo
[1] = Changes in blood concentration over time of orally ingested EGCg and caffeine in humans; settings: oral ingestion
[2] = Absorbability of EGCg in humans: blood EGCg level after drinking drinks A to C (chemiluminescence-HPLC)
Description: Caffeine formulation (manufactured by […] Pharmaceutical Co., Ltd.), EGCg formulation (content of EGCg: 90% or more, trade name: Teavigo, manufactured by DSM Nutritional Products), ascorbic acid and citric acid were added in the amounts shown in Table 2, respectively, to 190 ml of water, which were dissolved. Thereafter, each of the resulting mixtures was poured into a can, respectively, which was sealed and sterilized by heat and then drinks A to C were prepared. […] Each of subjects drank one of the drinks […] minutes after the drinking was measured by chemiluminescence-HPLC. The measurement was subjected in three subjects for each drink. The relationship between the C/E ratio and the blood EGCg level is graphically represented in accordance with Table 2, which is shown as FIG. 2. According to Table 2, the blood EGCg level of subjects is the highest in the case that the drink B having the C/E ratio of 0.4 has been taken by the subjects, and the blood EGCg level falls in either case where the C/E ratio is lower or higher than that.

[3] = Absorbability of EGCg in rats: blood EGCg level after oral administration of caffeine and EGCg solutions (chemiluminescence-HPLC); settings: average of six rats
Description: Teavigo, manufactured by DSM Nutritional Products) in 1 ml of water were prepared. In accordance with Experimental plots 1 to 7 shown in Table 1, the solution of caffeine and the solution of EGCg were orally administered to rats. After 60 minutes from the administration, the blood EGCG level in rats was measured by chemiluminescence-HPLC. The measurement was subjected by using six rats for each Experimental plot. The relationship between the C/E ratio and the blood EGCg level is graphically represented in accordance with Table 1, which is shown as FIG. 1. […] When the C/E ratio is lower or higher than that, the blood EGCg level is reduced.

Row | SMILES | Time at which blood concentration reaches a maximum value [1] | Absorbability of EGCg relative to EGCg alone ([2]; C/E ratio 0.18 to 0.70) [times] | Absorbability of EGCg relative to normal green tea infusion ([2]; C/E ratio 0.18 to 0.70) [times] | Absorbability of EGCg relative to EGCg alone ([2]; C/E ratio 0.20 to 0.60) [times] | Absorbability of EGCg relative to normal green tea infusion ([2]; C/E ratio 0.20 to 0.60) [times] | Increase of absorbability of EGCg relative to normal tea ([2]; optimized C/E ratio, maximum) | Blood EGCg level ([3]; Exp. plot 1: rats, caffeine 0 mg + EGCg 30 mg, C/E ratio 0, 60 minutes after administration) [pmol/mL] | Blood EGCg level ([3]; Exp. plot 2: rats, caffeine 3 mg + EGCg 30 mg, C/E ratio 0.1, 60 minutes after administration) [pmol/mL] | Blood EGCg level ([3]; Exp. plot 3: rats, caffeine 6 mg + EGCg 30 mg, C/E ratio 0.2, 60 minutes after administration) [pmol/mL] | Blood EGCg level ([3]; Exp. plot 4: rats, caffeine 15 mg + EGCg 30 mg, C/E ratio 0.5, 60 minutes after administration) [pmol/mL] | Blood EGCg level ([3]; Exp. plot 5: rats, caffeine 30 mg + EGCg 30 mg, C/E ratio 1.0, 60 minutes after administration) [pmol/mL] | Blood EGCg level ([3]; Exp. plot 6: rats, caffeine 45 mg + EGCg 30 mg, C/E ratio 1.5, 60 minutes after administration) [pmol/mL] | Blood EGCg level ([3]; Exp. plot 7: rats, caffeine 65 mg + EGCg 30 mg, C/E ratio 2.2, 60 minutes after administration) [pmol/mL]
1 | Cn1c(=O)c2c(ncn2C)n(C)c1=O [caffeine, reference compound] | about 1.5 hours |  |  |  |  |  |  |  |  |  |  |  | 
2 | O=C(O[C@@H]1Cc2c(O)cc(O)cc2O[C@@H]1c1cc(O)c(O)c(O)c1)c1cc(O)c(O)c(O)c1 [EGCg, epigallocatechin gallate] | about 1.5 hours | ≥ 1.7 | ≥ 1.1 | ≥ 1.75 | ≥ 1.15 | up to 1.2 times | 229 | 243 | 270 | 221 | 153 | 90 | 94
